PubChem BioAssay (NCI)
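Cells were grown in 96-well plates and exposed to each compound for 48 hours at five concentrations; endpoints were interpolated linearly between bracketing concentrations, or set to the highest concentration if not reached. GI50: concentration for 50% inhibition of growth. TGI is the concentration that stops growth completely.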

Assays:
Test in all cases: growth of human tumour cells (NCI), 48 h
OVCAR-5 ovarian = tested on: OVCAR-5 ovarian
A498 renal = tested on: A498 renal
TK-10 renal = tested on: TK-10 renal
A549 NSCLC = tested on: A549 NSCLC
HCT-116 colon = tested on: HCT-116 colon
NCI-H460 lung = tested on: NCI-H460 lung
NCI/ADR-RES ovarian = tested on: NCI/ADR-RES ovarian
SR leukemia = tested on: SR leukemia
U251 CNS = tested on: U251 CNS
IGROV1 ovarian = tested on: IGROV1 ovarian
HOP-62 NSCLC = tested on: HOP-62 NSCLC
UACC-62 melanoma = tested on: UACC-62 melanoma
MDA-MB-435 = tested on: MDA-MB-435
SK-MEL-5 melanoma = tested on: SK-MEL-5 melanoma
NCI-H522 lung = tested on: NCI-H522 lung
SN12C renal = tested on: SN12C renal
RXF 393 renal = tested on: RXF 393 renal
HT29 colon = tested on: HT29 colon
HS 578T breast = tested on: HS 578T breast
SF-268 CNS = tested on: SF-268 CNS
SW-620 colon = tested on: SW-620 colon
OVCAR-3 ovarian = tested on: OVCAR-3 ovarian
HCT-15 colon = tested on: HCT-15 colon
SK-MEL-28 melanoma = tested on: SK-MEL-28 melanoma
SNB-19 CNS = tested on: SNB-19 CNS
HL-60(TB) leukemia = tested on: HL-60(TB) leukemia
ACHN renal = tested on: ACHN renal
CAKI-1 renal = tested on: CAKI-1 renal
SF-295 CNS = tested on: SF-295 CNS
786-0 renal = tested on: 786-0 renal
LOX IMVI melanoma = tested on: LOX IMVI melanoma
MOLT-4 leukemia = tested on: MOLT-4 leukemia
MDA-MB-231 breast = tested on: MDA-MB-231 breast
NCI-H226 lung = tested on: NCI-H226 lung
KM12 colon = tested on: KM12 colon
UO-31 renal = tested on: UO-31 renal
UACC-257 melanoma = tested on: UACC-257 melanoma
SNB-75 CNS = tested on: SNB-75 CNS
DU-145 prostate = tested on: DU-145 prostate
COLO 205 colon = tested on: COLO 205 colon
RPMI-8226 leukemia = tested on: RPMI-8226 leukemia
SK-MEL-2 melanoma = tested on: SK-MEL-2 melanoma
EKVX NSCLC = tested on: EKVX NSCLC
BT-549 breast = tested on: BT-549 breast
PC-3 prostate = tested on: PC-3 prostate
NCI-H23 lung = tested on: NCI-H23 lung
K-562 leukemia = tested on: K-562 leukemia
MCF7 breast = tested on: MCF7 breast
SF-539 CNS = tested on: SF-539 CNS
OVCAR-8 ovarian = tested on: OVCAR-8 ovarian

COc1c2c3ccccc3nc-2n(C)c2ccccc12
GI50 (OVCAR-5 ovarian): 8.43 µM
TGI (OVCAR-5 ovarian): > 100 µM
GI50 (A498 renal): 10.1 µM
TGI (A498 renal): 24.8 µM
GI50 (TK-10 renal): 11.7 µM
TGI (TK-10 renal): 58.5 µM
GI50 (A549 NSCLC): 14.3 µM
TGI (A549 NSCLC): > 100 µM
GI50 (HCT-116 colon): 4.18 µM
TGI (HCT-116 colon): 81.7 µM
GI50 (NCI-H460 lung): 6.26 µM
TGI (NCI-H460 lung): 32.1 µM
GI50 (NCI/ADR-RES ovarian): 7.33 µM
TGI (NCI/ADR-RES ovarian): 34.8 µM
GI50 (SR leukemia): 7.1 µM
TGI (SR leukemia): > 100 µM
GI50 (U251 CNS): 7.81 µM
TGI (U251 CNS): 32.7 µM
GI50 (IGROV1 ovarian): 24.3 µM
TGI (IGROV1 ovarian): > 100 µM
GI50 (HOP-62 NSCLC): 8.61 µM
TGI (HOP-62 NSCLC): 33.6 µM
GI50 (UACC-62 melanoma): 11.1 µM
TGI (UACC-62 melanoma): 33 µM
GI50 (MDA-MB-435): 13.9 µM
TGI (MDA-MB-435): 38.3 µM
GI50 (SK-MEL-5 melanoma): 12.8 µM
TGI (SK-MEL-5 melanoma): 33.1 µM
GI50 (NCI-H522 lung): 49.2 µM
TGI (NCI-H522 lung): > 100 µM
GI50 (SN12C renal): 7.27 µM
TGI (SN12C renal): 35.9 µM
GI50 (RXF 393 renal): 21.3 µM
TGI (RXF 393 renal): 78.1 µM
GI50 (HT29 colon): 4.75 µM
TGI (HT29 colon): > 100 µM
GI50 (HS 578T breast): 42 µM
TGI (HS 578T breast): > 100 µM
GI50 (SF-268 CNS): 10.2 µM
TGI (SF-268 CNS): 30.4 µM
GI50 (SW-620 colon): 7.97 µM
TGI (SW-620 colon): > 100 µM
GI50 (OVCAR-3 ovarian): 21 µM
TGI (OVCAR-3 ovarian): > 100 µM
GI50 (HCT-15 colon): 5.29 µM
TGI (HCT-15 colon): 50.6 µM
GI50 (SK-MEL-28 melanoma): 14.7 µM
TGI (SK-MEL-28 melanoma): 36.9 µM
GI50 (SNB-19 CNS): 17.1 µM
TGI (SNB-19 CNS): > 100 µM
GI50 (HL-60(TB) leukemia): 9.88 µM
TGI (HL-60(TB) leukemia): 47.6 µM
GI50 (ACHN renal): 3.33 µM
TGI (ACHN renal): 19.4 µM
GI50 (CAKI-1 renal): 19.2 µM
TGI (CAKI-1 renal): > 100 µM
GI50 (SF-295 CNS): 20.8 µM
TGI (SF-295 CNS): > 100 µM
GI50 (786-0 renal): 6.54 µM
TGI (786-0 renal): 40.5 µM
GI50 (LOX IMVI melanoma): 4.73 µM
TGI (LOX IMVI melanoma): 26.3 µM
GI50 (MOLT-4 leukemia): 4.7 µM
TGI (MOLT-4 leukemia): > 100 µM
GI50 (MDA-MB-231 breast): 7.03 µM
TGI (MDA-MB-231 breast): 40.4 µM
GI50 (NCI-H226 lung): 6.77 µM
TGI (NCI-H226 lung): 74.3 µM
GI50 (KM12 colon): 8.63 µM
TGI (KM12 colon): > 100 µM
GI50 (UO-31 renal): 29.1 µM
TGI (UO-31 renal): > 100 µM
GI50 (UACC-257 melanoma): 21.9 µM
TGI (UACC-257 melanoma): 55.6 µM
GI50 (SNB-75 CNS): 14.1 µM
TGI (SNB-75 CNS): 35.4 µM
GI50 (DU-145 prostate): 9.48 µM
TGI (DU-145 prostate): 45.5 µM
GI50 (COLO 205 colon): 6.73 µM
TGI (COLO 205 colon): 49.4 µM
GI50 (RPMI-8226 leukemia): 6.04 µM
TGI (RPMI-8226 leukemia): 24.4 µM
GI50 (SK-MEL-2 melanoma): 36.8 µM
TGI (SK-MEL-2 melanoma): > 100 µM
GI50 (EKVX NSCLC): 13.7 µM
TGI (EKVX NSCLC): 57.2 µM
GI50 (BT-549 breast): 18.8 µM
TGI (BT-549 breast): 43.5 µM
GI50 (PC-3 prostate): 5.25 µM
TGI (PC-3 prostate): 20.5 µM
GI50 (NCI-H23 lung): 11.7 µM
TGI (NCI-H23 lung): 33.6 µM
GI50 (K-562 leukemia): 11.5 µM
TGI (K-562 leukemia): > 100 µM
GI50 (MCF7 breast): 4.31 µM
TGI (MCF7 breast): 33.1 µM
GI50 (SF-539 CNS): 8.83 µM
TGI (SF-539 CNS): 25.9 µM
GI50 (OVCAR-8 ovarian): 25.7 µM
TGI (OVCAR-8 ovarian): > 100 µM
